According to ChEMBL document CHEMBL2069184, “A Back-to-Front Fragment-Based Drug Design Search Strategy Targeting the DFG-Out Pocket of Protein Tyrosine Kinases” (ACS Med Chem Lett, 2012):

What was measured:
[1] = target: T1, Vascular endothelial growth factor receptor 2 (Homo sapiens, UniProt P35968); assay: Inhibition of human unphosphorylated N-terminal-His6 tagged VEGFR2 catalytic domain using 5-FAM-EEPLYWSFPAKKK-CONH2 as substrate after 60 mins by mobility shift assay
[2] = target: T1, Vascular endothelial growth factor receptor 2; assay: Inhibition of human phosphorylated N-terminal-His6 tagged VEGFR2 catalytic domain using 5-FAM-EEPLYWSFPAKKK-CONH2 as substrate after 60 mins by mobility shift assay
[3] = target: T1, Vascular endothelial growth factor receptor 2; conditions: 100 uM

T1 sequence (P35968 whole entry, the tested form may be a part): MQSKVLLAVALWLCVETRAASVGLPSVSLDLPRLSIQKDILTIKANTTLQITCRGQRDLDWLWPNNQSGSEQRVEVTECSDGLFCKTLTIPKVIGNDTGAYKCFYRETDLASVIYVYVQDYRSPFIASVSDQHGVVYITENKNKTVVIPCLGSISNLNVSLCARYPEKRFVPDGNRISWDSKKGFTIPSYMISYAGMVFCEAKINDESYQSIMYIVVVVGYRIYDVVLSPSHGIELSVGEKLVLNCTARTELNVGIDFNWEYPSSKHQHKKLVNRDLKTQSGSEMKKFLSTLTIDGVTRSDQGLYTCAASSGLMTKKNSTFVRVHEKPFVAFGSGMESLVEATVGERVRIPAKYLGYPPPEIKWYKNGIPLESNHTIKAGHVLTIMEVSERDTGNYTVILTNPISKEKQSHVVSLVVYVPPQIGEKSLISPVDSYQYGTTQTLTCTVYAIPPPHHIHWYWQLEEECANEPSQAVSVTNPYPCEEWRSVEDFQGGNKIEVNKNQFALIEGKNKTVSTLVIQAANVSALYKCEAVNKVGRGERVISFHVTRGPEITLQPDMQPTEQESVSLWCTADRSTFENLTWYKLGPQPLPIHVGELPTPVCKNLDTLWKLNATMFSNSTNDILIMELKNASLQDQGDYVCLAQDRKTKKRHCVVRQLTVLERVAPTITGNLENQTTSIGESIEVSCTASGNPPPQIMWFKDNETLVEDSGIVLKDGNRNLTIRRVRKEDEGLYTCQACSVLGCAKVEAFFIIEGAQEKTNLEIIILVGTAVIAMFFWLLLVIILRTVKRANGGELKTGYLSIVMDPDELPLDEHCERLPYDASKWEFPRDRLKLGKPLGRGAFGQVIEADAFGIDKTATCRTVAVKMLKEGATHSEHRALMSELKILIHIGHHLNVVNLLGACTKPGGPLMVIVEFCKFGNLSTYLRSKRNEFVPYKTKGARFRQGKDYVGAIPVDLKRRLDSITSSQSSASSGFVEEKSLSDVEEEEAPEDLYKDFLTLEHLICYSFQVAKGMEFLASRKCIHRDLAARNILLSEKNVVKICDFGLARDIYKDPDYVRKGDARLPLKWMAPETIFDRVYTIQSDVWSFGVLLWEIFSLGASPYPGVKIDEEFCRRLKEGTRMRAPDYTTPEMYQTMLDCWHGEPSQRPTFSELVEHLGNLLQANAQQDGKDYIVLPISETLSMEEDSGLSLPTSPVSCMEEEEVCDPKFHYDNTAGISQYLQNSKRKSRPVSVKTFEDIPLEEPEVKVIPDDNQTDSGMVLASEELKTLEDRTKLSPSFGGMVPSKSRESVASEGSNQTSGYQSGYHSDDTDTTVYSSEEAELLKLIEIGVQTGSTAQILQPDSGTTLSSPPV

Row | IC50 [1] [µM] | IC50 [2] [µM] | Ki [1] [µM] | inhibition [3] [%] | Compound
1 | 0.62 | 0.86 |  |  | c1ccc2c3c([nH]c2c1)-c1n[nH]cc1CCC3
2 | 50 | > 100 | 25 | 8 | Cc1oc(-c2ccccc2)nc1COc1cccc(CO)c1
3 | 4.4 | > 100 |  |  | O=C(Nc1cccc(C(F)(F)F)c1)Nc1ccccc1Cl
